Measured values reported in patent US20250059182A1, “SOS1 INHIBITORS” (Mirati Therapeutics, Inc., priority 2021, published 2025).
Structures can show the parent of a compound that is named as a salt. Where two headings read alike, the source gives them in different places.

Experiments:
[1] = target: T1, recombinant human SOS1 polypeptide (amino acids 560-1049) (Homo sapiens, UniProt Q07889); experiment: HTRF displacement assay: inhibition of labeled tracer binding to SOS1
T1 construct: corresponding to amino acids 560-1049, expressed in E. Coli; made in house; host or cells: E. coli
T1 sequence (Q07889 560-1049): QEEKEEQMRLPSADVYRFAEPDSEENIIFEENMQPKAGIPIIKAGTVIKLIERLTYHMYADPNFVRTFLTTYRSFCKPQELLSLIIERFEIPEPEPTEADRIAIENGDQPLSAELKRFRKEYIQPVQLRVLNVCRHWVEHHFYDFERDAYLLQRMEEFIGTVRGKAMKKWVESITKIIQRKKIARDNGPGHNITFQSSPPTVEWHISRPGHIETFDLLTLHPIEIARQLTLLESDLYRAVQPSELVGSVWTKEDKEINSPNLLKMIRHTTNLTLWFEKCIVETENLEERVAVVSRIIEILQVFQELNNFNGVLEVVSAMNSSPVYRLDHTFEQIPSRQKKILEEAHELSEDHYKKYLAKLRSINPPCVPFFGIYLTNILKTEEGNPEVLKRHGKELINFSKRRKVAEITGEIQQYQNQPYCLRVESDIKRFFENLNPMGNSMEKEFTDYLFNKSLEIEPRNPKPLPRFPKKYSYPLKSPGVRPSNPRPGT
Description: The ability of a compound of Formula (I) to bind to SOS1 was measured using a HTRF displacement assay. […] After a 1-hour incubation at room temperature, the HTRF signal was measured using Clairostar plate reader (BMG Labtech) according to the manufacturer's instructions. Excitation filter EX-TR was used, and emission 1 was detected at 650-610 nm and emission 2 detected at 620-610 nm. The HTRF ratio was calculated using the formula: [emission 1/emission 2]*10000.
Background signals were calculated from well with a 10 μM inhibitor, known to inhibit 100% at that concentration. The background subtracted signals were converted to % binding relative to DMSO controls. Data were analyzed using XLFIT software (IDBS) using a Morrison equation for competitive binding and Ki's were generated compound of Formula (I).

pERK in MKN1 cells = experiment: pERK inhibition, In-Cell Western (LI-COR Odyssey), MKN1 cells; type: cell-based; settings: MKN1 or H358 cells (table does not say which), 0.5-1 hour incubation, read-out: IC50 (nM), pERK inhibition
Description: This Example illustrates that exemplary compounds of the present invention prevent KRas-mediated GTP nucleotide exchange mediated by SOS1 to inhibit KRas activity thereby inhibiting the generation of the downstream effector pERK.
MKN1 cells (15,000/w) or H358 (30,000/w) were seeded in a black clear flat bottom 96-well cell culture plate (Corning, #3904) and incubated at 37° C. overnight. Assay day 1, cells were dosed with compounds of Formula (I) with a 10 μm starting concentration and serially diluted 3× for a total of 9 concentrations. The cells were incubated for approximately 0.5-1 hour with the compounds solubilized in DMSO at 37° C. Cells were immediately fixed by adding 50 μL of 4% formaldehyde to all wells in a fume hood and the plates were incubated for 20 minutes at room temperature. The formaldehyde was discarded from the plates and 150 μL of ice-cold methanol was added to permeabilize the cells for 10 minutes at −20° C. The methanol was discarded from each of the plates and any liquid remaining in the plate by tapping the plate against paper towels. Cells were then blocked with 150 μL of Odyssey blocking buffer (LI-COR Biosciences #927-50010) using 0.05% Tween for 1 hour at room temperature on a shaker. The blocking buffer was discarded and 50 μL of primary antibodies pERK (cell signaling Technology #9101L; Rabbit, 1:500) and GapDH (Millipore #MAB34; Mouse, 1:5000) diluted in Odyssey blocking buffer was added. The plates were incubated overnight at 4° C. on a shaker.
On Assay day 2, the primary antibody solution was removed. Each plate was washed 3× times with 150 μL of 1×PBST (PBS+0.1% Tween 20) and incubated with 50 μL of secondary antibodies: Anti-Rabbit (LI-COR Biosciences #926-32211) and Anti-Mouse (LI-COR Biosciences #68070) at 1:800 dilution in Odyssey blocking buffer with Tween at room temperature on a shaker for 2 hours (protected from light). The secondary antibody solution as removed and each plate was washed with PBST 3× times. Any liquid remaining was discarded and the plate was imaged using the Licor Odyssey machine according to the manufacturer's instruction, using a set focus length at 3 mm and both 800 nm and 700 nm filters. The GAPDH normalized scan values for each well were divided by the average of vehicle wells to get the % of pERK inhibition. The IC50 values were then calculated with the Graph pad Prism software.

[2] = Table A, Morrison equation for competitive binding
[3] = Table A1, Morrison equation for competitive binding

Row | Structure (SMILES) | Ki [1, 2] [nM] | IC50 (pERK in MKN1 cells; Homo sapiens, MKN-1, Table B) [nM] | IC50 (pERK in MKN1 cells; Table B) [nM] | Ki [1, 3] [nM]
1 | Cc1c(C#N)cccc1[C@@H](C)Nc1nnc(C)c2cnc(N3C[C@H]4CCCN[C@H]4C3)cc12 (single isomer, unassigned) [Example 6-3] | 0.992 | 73 | – | –
2 | Cc1c(C#N)cccc1[C@@H](C)Nc1nnc(C)c2cnc(N3C[C@@H]4CCCN[C@@H]4C3)cc12 (single isomer, unassigned) [Example 6-4] | 2.74 | 194 | – | –
3 | Cc1c(C#N)cccc1[C@@H](C)Nc1nnc(C)c2cnc(N3C[C@H]4CCCN(C)[C@H]4C3)cc12 (single isomer, unassigned) [Example 6-5] | 1.12 | 85.2 | – | –
4 | Cc1c(C#N)cccc1[C@@H](C)Nc1nnc(C)c2cnc(N3C[C@@H]4CCCN(C)[C@@H]4C3)cc12 (single isomer, unassigned) [Example 6-6] | 1.36 | 80.6 | – | –
5 | Cc1c(C#N)cccc1[C@@H](C)Nc1nnc(C)c2cnc(N3C[C@@H]4[C@H]3CCN4C)cc12 (single isomer, unassigned) [Example 6-8] | 0.808 | – | 33.8 | –
6 | Cc1c(C#N)cccc1[C@@H](C)Nc1nnc(C)c2cnc(N3C[C@H]4[C@@H]3CCN4C)cc12 (single isomer, unassigned) [Example 6-9] | 2.12 | – | 69.4 | –
7 | Cc1c(C#N)cccc1[C@@H](C)Nc1nnc(C)c2cnc(N3CC[C@@H]4[C@H]3CN4C)cc12 (single isomer, unassigned) [Example 6-10] | 0.872 | 44.4 | – | –
8 | Cc1c(C#N)cccc1[C@@H](C)Nc1nnc(C)c2cnc(N3CC[C@H]4[C@@H]3CN4C)cc12 (single isomer, unassigned) [Example 6-11] | 2.78 | 199 | – | –
9 | Cc1c(C#N)cccc1[C@@H](C)Nc1nnc(C)c2cnc(N3C[C@H]4[C@@H]3CCN4C)cc12 (single isomer, unassigned) [Example 6-12] | 0.24 | – | 13.7 | –
10 | Cc1c(C#N)cccc1[C@@H](C)Nc1nnc(C)c2cnc(N3C[C@@H]4[C@H]3CCN4C)cc12 (single isomer, unassigned) [Example 6-13] | 0.615 | – | 16.3 | –
11 | Cc1c(C#N)cccc1[C@@H](C)Nc1nnc(C)c2cc(F)c(N3C[C@H]4[C@@H]3CCN4C)cc12 (single isomer, unassigned) [Example 9-1] | 1 | 15.5 | – | –
12 | Cc1c(C#N)cccc1[C@@H](C)Nc1nnc(C)c2cc(F)c(N3C[C@@H]4[C@H]3CCN4C)cc12 (single isomer, unassigned) [Example 9-2] | 2 | 30 | – | –
13 | CCN(c1cc2c(N[C@H](C)c3cccc(C#N)c3C)nnc(C)c2cn1)C1CCN(C)C1 (stereo in doubt) [Example 1-104, 3-((R)-1-((7-(ethyl((S)-1-methylpyrrolidin-3-yl)amino)-4-methylpyrido[3,4-d]pyridazin-1-yl)amino)ethyl)-2-methylbenzonitrile] | 0.901 | – | 75.5 | –
14 | Cc1c(C#N)cccc1[C@@H](C)Nc1nnc(C)c2cnc(N3CC(C)(N4CCC4)C3)cc12 [Example 1-1, (R)-2-methyl-3-(1-((4-methyl-7-(3′-methyl-[1,3′-biazetidin]-1′-yl)pyrido[3,4-d]pyridazin-1-yl)amino)ethyl)benzonitrile] | 1.59 | 104 | – | –
15 | CCN(CC)C1(C)CN(c2cc3c(N[C@H](C)c4cccc(C#N)c4C)nnc(C)c3cn2)C1 [Example 1-2, (R)-3-(1-((7-(3-(diethylamino)-3-methylazetidin-1-yl)-4-methylpyrido[3,4-d]pyridazin-1-yl)amino)ethyl)-2-methylbenzonitrile] | 2.22 | 126 | – | –
16 | CN[C@H]1CCN(c2cc3c(N[C@H](C)c4cccc(C#N)c4C)nnc(C)c3cn2)C1 [Example 1-3, 2-methyl-3-((R)-1-((4-methyl-7-((S)-3-(methylamino)pyrrolidin-1-yl)pyrido[3,4-d]pyridazin-1-yl)amino)ethyl)benzonitrile] | 1.42 | 95.1 | – | –
17 | Cc1c(C#N)cccc1[C@@H](C)Nc1nnc(C)c2cnc(N3CC(C)(N4CCCC4)C3)cc12 [Example 1-4, (R)-2-methyl-3-(1-((4-methyl-7-(3-methyl-3-(pyrrolidin-1-yl)azetidin-1-yl)pyrido[3,4-d]pyridazin-1-yl)amino)ethyl)benzonitrile] | 1.22 | 62.6 | – | –
18 | Cc1nnc(N[C@H](C)c2cccc(C(F)F)c2F)c2cc(N3CCN(C)CC3)c(C#N)cc12 [Example 6-22, (R)-1-((1-(3-(difluoromethyl)-2-fluorophenyl)ethyl)amino)-4-methyl-7-(4-methylpiperazin-1-yl)phthalazine-6-carbonitrile] | 1.49 | – | – | –
19 | Cc1c(C#N)cccc1[C@@H](C)Nc1nnc(C)c2cc(Br)c(N3CCN(C)CC3)cc12 [Example 8-1, (R)-3-(1-((6-bromo-4-methyl-7-(4-methylpiperazin-1-yl)phthalazin-1-yl)amino)ethyl)-2-methylbenzonitrile] | 2.4 | – | – | –
20 | Cc1c(C#N)cccc1[C@@H](C)Nc1nnc(CO)c2cnc(N3CCOCC3)cc12 [Example P-201, (R)-3-(1-((4-(hydroxymethyl)-7-morpholinopyrido[3,4-d]pyridazin-1-yl)amino)ethyl)-2-methylbenzonitrile formic acid salt] | – | – | – | 6.36
21 | Cc1c(C#N)cccc1[C@@H](C)Nc1nnc(C=O)c2cnc(N3CCOCC3)cc12 [Example P-202, (R)-3-(1-((4-formyl-7-morpholinopyrido[3,4-d]pyridazin-1-yl)amino)ethyl)-2-methylbenzonitrile] | – | – | – | 49.7
22 | Cc1c(C#N)cccc1[C@@H](C)Nc1nnc(C)c2cnc(N3CCOC(=O)C3)cc12 [Example P-203, (R)-2-methyl-3-(1-((4-methyl-7-(2-oxomorpholino)pyrido[3,4-d]pyridazin-1-yl)amino)ethyl)benzonitrile] | – | – | – | 26.1
23 | Cc1c(C#N)cccc1[C@@H](C)Nc1nnc(C)c2cnc(N3CCOCC3=O)cc12 [Example P-204, (R)-2-methyl-3-(1-((4-methyl-7-(3-oxomorpholino)pyrido[3,4-d]pyridazin-1-yl)amino)ethyl)benzonitrile] | – | – | – | 139
24 | Cc1c(C#N)cccc1[C@@H](C)Nc1nnc(C)c2cnc(OCCOCCN3C(=O)CCC(N4C(=O)c5cccc(O)c5C4=O)C3=O)cc12 (stereo partly drawn) [Example P-207, 3-((1R)-1-((7-(2-(2-(3-(4-hydroxy-1,3-dioxoisoindolin-2-yl)-2,6-dioxopiperidin-1-yl)ethoxy)ethoxy)-4-methylpyrido[3,4-d]pyridazin-1-yl)amino)ethyl)-2-methylbenzonitrile] | – | – | – | 865
25 | Cc1c(C#N)cccc1[C@@H](C)Nc1nnc(C)c2cnc(OCCOCCOc3cccc4c3C(=O)N(C3CCC(=O)NC3=O)C4=O)cc12 (stereo partly drawn) [Example P-208, 3-((1R)-1-((7-(2-(2-((2-(2,6-dioxopiperidin-3-yl)-1,3-dioxoisoindolin-4-yl)oxy)ethoxy)ethoxy)-4-methylpyrido[3,4-d]pyridazin-1-yl)amino)ethyl)-2-methylbenzonitrile] | – | – | – | 427
26 | Cc1c(C#N)cccc1[C@@H](C)Nc1nnc(C)c2cnc(OCCNC(=O)CCOC34CC5CC(CC(C5)C3)C4)cc12 [Example P-209, 3-(((3s,5s, 7s)-adamantan-1-yl)oxy)-N-(2-((1-(((R)-1-(3-cyano-2-methylphenyl)ethyl)amino)-4-methylpyrido[3,4-d]pyridazin-7-yl)oxy)ethyl)propanamide] | – | – | – | 542
